Values quoted from earlier work as cited in patent US20230143212A1 (Navinta, LLC, priority 2021, published 2023).
“And” between values parts separate entries of the source, which are not always exact repeats. Equal values may be shown once. Read-outs that look alike come from different tables or passages of the source.

Experiments:
[1] = orally administered
[2] = for solubility in propylene glycol/water: 25° C.
[3] = rabbits; composition in polyethylene glycol-300 with and without bile salt
[4] = ethyl alcohol, DMSO, propylene glycol, polyethylene glycol, glycerol, dimethylformamide

Compound: COc1ccc2[nH]cc(CCNC(C)=O)c2c1 [Melatonin, N-[2-(5-Methoxy-1H-indol-3-yl)ethyl] acetamide]
- Plasma T½ [1]: ~ 50 minutes
- oral absorption [1]: almost completely absorbed
- oral bioavailability [1]: ~ 15%
- solubility in propylene glycol/water ([2]; 60% v/v propylene glycol): about 250 mM and 60 mg/ml
- solubility in propylene glycol/water ([2]; until reaching 40% v/v propylene glycol): up to 50 mM and ~ 12 mg/ml
- pH dependence of solubility in water ([2]; water): pH-independent solubility
- bioavailability via intranasal route [3]: increased substantially
- solubility in organic solvents [4]: soluble
